Results taken from patent US20120039826A1, “COSMETIC COMPOSITION FOR SKIN LIGHTENING” (priority 2009, published 2012).

System: Keratinocytes (HaCaT cells)
Experiment: Keratinocyte differentiation assay
Format: cell-based
Settings: HaCaT cells cultured with active 24 hours, acridine orange, % of control (control = 100)
Procedure: Keratinocyte Differentiation Assay
This is an in vitro cell culture based assay to evaluate the capability of these actives to alter cell differentiation process. Keratinocytes (HaCaT cells—5×10^4 cells/well) were grown in 24 well plates for 24 hours. These proliferating keratinocytes were further cultured with actives for 24 hours. Cells were then washed with PBS and stained with acridine orange in PBS (Sigma Chemical Co, USA). Cells were washed 15 minutes later and viewed using an epi-fluorescent microscope (Olympus BX 50), at 20× magnification, using appropriate excitation and barrier filters, to simultaneously view red and green fluorescence (excitation: 460 nm and emission >515 nm). The entire plate was scanned and the percentage of differentiated keratinocytes (cells with red fluorescence evenly distributed within the cytoplasm) was estimated. Data were represented as % of control. Higher % values indicate increased cell differentiation.

Row | SMILES | % Differentiation (concentration 0.002%) | % Differentiation (concentration 0.01%)
1 | CC(=O)O.N [Ammonium acetate] | 175% | –
2 | CC(=O)[O-].CC(=O)[O-].[Mg+2] [Magnesium acetate] | 250% | 237%
3 | O=C([O-])C(O)C(O)C(=O)[O-].[Na+].[Na+] (stereo not drawn) [Na tartarate (c4), Na tartarate] | – | 165%
4 | CC(=O)[O-].[Na+] [Sodium acetate] | 175% | 168%
